# Source: the OligoGym collection
# Values joined by “and” are separate entries in the source; they are usually repeats but may differ in a detail not shown here. Equal entries are not always repeated. After the bases stand the sugars from the 5' end (letter, count) and the backbone: PS all phosphorothioate, else s phosphorothioate and o phosphodiester by linkage. Methylation of C is not given here. e = 2'-O-(2-methoxyethyl) (MOE); k = constrained ethyl (cEt); d = 2'-deoxy (DNA); m = 2'-O-methyl
# Biological target: HSD17B13
# Details: ASO, HepaRG
sequence,measurement,setting,value
"TCACTATATTGCATTC (sugars k3 d10 k3, PS)",target mRNA inhibition,1 µM,35%
"AGCAAAGTTTGGGCAG (sugars k3 d10 k3, PS)",target mRNA inhibition,1 µM,44%
"CTGAGCTAGACAATTG (sugars k3 d10 k3, PS)",target mRNA inhibition,1 µM,56%
"TAAGCTGAGAGTTCTA (sugars k3 d9 k3 e1, PS)",target mRNA inhibition,1 µM,48%
"TCTTAAACCTTCCCTG (sugars k3 d10 k3, PS)",target mRNA inhibition,1 µM,21%
"GCAAAGTTTGGGCAGA (sugars k3 d10 k3, PS)",target mRNA inhibition,1 µM,50%
"GTTTTGGGCTAATGAA (sugars kkdddddddddkekek, PS)",target mRNA inhibition,1 µM,42%
"TTGCACCGTTTTGGGC (sugars k3 d1 m1 d8 k3, PS)",target mRNA inhibition,1 µM,50%
"GATCGGCTGGATATAC (sugars k3 d10 k3, PS)",target mRNA inhibition,1 µM,7%
"AATTCACTATCTCCCT (sugars k3 d10 k3, PS)",target mRNA inhibition,1 µM,10%
"ATGAAGTTAGTATAGT (sugars k3 d1 m1 d8 k3, PS)",target mRNA inhibition,1 µM,38%
"ATAACTACAAGAGGTT (sugars k3 d9 k3 e1, PS)",target mRNA inhibition,1 µM,67%
"AAAAAGCTCTATTGGT (sugars k3 d10 k3, PS)",target mRNA inhibition,1 µM,0%
"AGGTTGAGATAAAGCT (sugars k3 d9 k3 e1, PS)",target mRNA inhibition,0.02 µM,0%
same,target mRNA inhibition,0.078 µM,23%
same,target mRNA inhibition,0.313 µM,46%
same,target mRNA inhibition,1 µM,71%
same,target mRNA inhibition,1.25 µM,64%
same,target mRNA inhibition,5 µM,77%
"GATGATTCTGACTCAT (sugars k3 d10 k3, PS)",target mRNA inhibition,1 µM,55%
"CAAAATGGTGGCGAGG (sugars k3 d10 k3, PS)",target mRNA inhibition,1 µM,10%
"CTAGAACACTTGCCTC (sugars k3 d10 k3, PS)",target mRNA inhibition,1 µM,25%
"GTCCACTTTTGGTGGA (sugars k3 d10 k3, PS)",target mRNA inhibition,1 µM,14%
"ATATACATCCAAGTAA (sugars k3 d10 k3, PS)",target mRNA inhibition,1 µM,18%
"CCTTATACTGAAGGCT (sugars k3 d10 k3, PS)",target mRNA inhibition,1 µM,41%
"GACATGAGGTTTTGAT (sugars k3 d9 k3 e1, PS)",target mRNA inhibition,1 µM,55%
"AGATCCCGTTCTTGCC (sugars k3 d10 k3, PS)",target mRNA inhibition,0.02 µM,0%
same,target mRNA inhibition,0.078 µM,20%
same,target mRNA inhibition,0.313 µM,47%
same,target mRNA inhibition,1 µM,68%
same,target mRNA inhibition,1.25 µM,72%
same,target mRNA inhibition,5 µM,76%
"GAGTGCATCTTAAGAT (sugars k3 d9 k3 e1, PS)",target mRNA inhibition,1 µM,34%
"GCCTTACCAGAATTTA (sugars k3 d10 k3, PS)",target mRNA inhibition,1 µM,75%
"TTCAGAGTTATACAGA (sugars k3 d10 k3, PS)",target mRNA inhibition,1 µM,66%
"ATTCTGTGTTCTTGTT (sugars k3 d10 k3, PS)",target mRNA inhibition,1 µM,67%
"GCTTTTGTCCACCTTT (sugars k3 d10 k3, PS)",target mRNA inhibition,0.02 µM,28%
same,target mRNA inhibition,0.078 µM,44%
same,target mRNA inhibition,0.313 µM,61%
same,target mRNA inhibition,1 µM,68%
same,target mRNA inhibition,1.25 µM,82%
same,target mRNA inhibition,5 µM,97%
"TACATATCTTACTCTG (sugars k3 d10 k3, PS)",target mRNA inhibition,1 µM,40%
"AATAUGGGATGAGGTA (sugars k3 d1 m1 d8 k3, PS)",target mRNA inhibition,1 µM,38%
"CTTTGCAGCATTGATT (sugars kkdddddddddkekek, PS)",target mRNA inhibition,1 µM,49%
"TTGCATAAGAGCCAAA (sugars k3 d10 k3, PS)",target mRNA inhibition,1 µM,46%
"TATAACTACAAGAGGT (sugars k3 d10 k3, PS)",target mRNA inhibition,1 µM,46%
"CAGTAGGCAGTTTCTC (sugars k3 d10 k3, PS)",target mRNA inhibition,0.02 µM,0%
same,target mRNA inhibition,0.078 µM,0%
same,target mRNA inhibition,0.313 µM,30%
same,target mRNA inhibition,1 µM,72% and 50%
same,target mRNA inhibition,1.25 µM,55%
same,target mRNA inhibition,5 µM,86%
"TAAACCTTCCCTGTGT (sugars k3 d10 k3, PS)",target mRNA inhibition,1 µM,17%
"CCTATGAAAAACTACG (sugars k3 d10 k3, PS)",target mRNA inhibition,1 µM,36%
"AGTTATTAGAAGTCAG (sugars k3 d1 m1 d8 k3, PS)",target mRNA inhibition,1 µM,25%
"TGAACCGTATTCCCAA (sugars k3 d10 k3, PS)",target mRNA inhibition,0.02 µM,26%
same,target mRNA inhibition,0.078 µM,8%
same,target mRNA inhibition,0.313 µM,59%
same,target mRNA inhibition,1 µM,76%
same,target mRNA inhibition,1.25 µM,81%
same,target mRNA inhibition,5 µM,93%
"CGTGGCCGCACACTGA (sugars k3 d10 k3, PS)",target mRNA inhibition,1 µM,42%
"TGATAATTTGGTGTCA (sugars k3 d10 k3, PS)",target mRNA inhibition,1 µM,3%
"ATTAAGACAGTTGAGT (sugars k3 d10 k3, PS)",target mRNA inhibition,1 µM,34%
"ATCTTAAGATACCCAG (sugars k3 d9 k3 e1, PS)",target mRNA inhibition,1 µM,71%
"ACCAAACTTCCAGCAG (sugars k3 d10 k3, PS)",target mRNA inhibition,1 µM,31%
